According to patent US8263151B2, “Peracid and 2-hydroxy organic acid compositions and methods for treating produce” (Fresh Express, Incorporated, priority 2008, dated 2012):

Key:
[1] = test system: indigenous microorganisms (Aerobic Plate Counts); type: cell-based
[2] = electron-Volts; cited from earlier work
E. coli K12 = test: Attached cells challenge test on leaves (Example 1); type: cell-based; settings: PAA 0 ppm
Listeria innocua = test: as above; type: cell-based; settings: PAA 0 ppm

## CC(=O)OO [PAA, peroxyacetic acid]
[1]
  Log Reduction of Aerobic Plate Counts vs untreated: 0.7 Log cfu/g
[2]
  Oxidation Capacity: 1.81 eV

## CC(O)C(=O)O (stereo not drawn) [LA, lactic acid]
E. coli K12; Romaine, LA 0.6%
  log reduction of attached cells (quantity not given): 0.24
E. coli K12; Romaine, LA 0.9%
  log reduction of attached cells (quantity not given): 0.37
E. coli K12; Spinach, LA 0.6%
  log reduction of attached cells (quantity not given): 0.09
E. coli K12; Spinach, LA 0.9%
  log reduction of attached cells (quantity not given): 0.42
E. coli K12; Spinach, LA 1.2%
  log reduction of attached cells (quantity not given): 0.81
Listeria innocua; Romaine, LA 0.6%
  log reduction of attached cells (quantity not given): 1.1
Listeria innocua; Romaine, LA 0.9%
  log reduction of attached cells (quantity not given): 1.4
Listeria innocua; Romaine, LA 1.2%
  log reduction of attached cells (quantity not given): 1.5
Listeria innocua; Spinach, LA 0.6%
  log reduction of attached cells (quantity not given): 0.1
Listeria innocua; Spinach, LA 0.9%
  log reduction of attached cells (quantity not given): 0.2
Listeria innocua; Spinach, LA 1.2%
  log reduction of attached cells (quantity not given): 0.2

## O=[O+][O-] [Ozone]
[2]
  Oxidation Capacity: 2.07 eV

## [O][Cl+][O-] [Chlorine Dioxide]
[2]
  Oxidation Capacity: 1.57 eV
